{
  "source": "paper PMC9947563",
  "about": "“Identification of the molecular determinants of antagonist potency in the allosteric binding pocket of human P2X4” (Frontiers in Pharmacology, 2023)",
  "origin": "cited, not measured here",
  "key": {"[1]": {"system": "P2X7", "set-up": "method as in Tian M. et al., 2020", "conditions": "ref Tian M. et al., 2020; cited from earlier work"}, "[2]": {"system": "hP2X4", "conditions": "cited from earlier work"}, "[3]": {"system": "P2X1", "set-up": "method as in Tian M. et al., 2020", "conditions": "ref Tian M. et al., 2020; cited from earlier work"}},
  "note": "Read-outs that look alike come from different tables or passages of the source.",
  "data": [
    {"smiles": "O=C(Nc1cc(C(F)(F)F)cc(C(F)(F)F)c1)c1cccc(Cl)c1O", "note": "[Tian-13]", "values": [
      {"measurement": "IC50", "setting": "[1]", "result": "177 ± 11", "unit": "nM"},
      {"measurement": "IC50", "setting": "[2]; ref Tian M. et al., 2020, read-out: P2X4 IC50", "result": "48.8 ± 11", "unit": "nM"},
      {"measurement": "IC50", "setting": "[2]; ref Tian et al. (2020), read-out: hP2X4 IC50", "result": 49, "unit": "nM"},
      {"measurement": "IC50", "setting": "[3]", "result": "58 ± 21.9", "unit": "nM"}
    ]}
  ]
}
